Key:
[1] = system: Lcc35; assay: Inhibitor effects on Lcc35 laccase activity; type: biochemical, R. microporus BCRC 35318; conditions: ABTS substrate; for Relative activity (%) of Lcc35: pre-incubation pH 5.0, 30° C., 10 min
Procedure: The inhibitory effects of NaN3, ethylenediaminetetraacetic acid (EDTA), dithiothreitol (DTT), and L-Cysteine on Lcc35 were examined as follows. Lcc35 was pre-incubated in a solution (pH 5.0) containing one of the test compounds at 30° C. for 10 min. The laccase activity was then examined using ABTS as the substrate.

[2] = system: Rigidoporus microporus BCRC 35318 laccase Lcc35, native (wild type), mature form SEQ ID NO:1; assay: Kinetic constants of Lcc35 for digesting ABTS and SGZ (initial reaction rates at various substrate concentrations); type: biochemical, R. microporus BCRC 35318
Procedure: The pH of the medium was adjusted to 5.5. After being cultured for 10 days at 30° C. in a rotary shaker with a speed setting of 125 rpm, the supernatant of the fungal culture thus obtained was collected and passed through a […] filter (Nalgene) to remove fungal cells. […] The precipitated proteins were dissolved in 40 ml of a 10 mM sodium acetate buffer (pH 6.0) and the resultant solution was dialyzed against the same acetate buffer overnight to remove co-precipitated ammonium sulfate and then concentrated to 4 ml by ultracentrifugal filteration with a molecular cutoff of 10 kDa (Amicon). Next, the laccase activities of Lcc35 under various pH conditions were determined, following the method described in Lu et al., Appl. Microbiol. […] After being incubated at 30° C. for 1 min (when ABST or SGZ was the substrate) or for 4 hours (when RBBR was the substrate), each of the reaction mixtures was examined with a spectrophotometer to determine its optical density at 420 nm (when ABST was the substrate), at 530 nm (when SGZ was the substrate), or at 585 nm (when RBBR was the substrate). […] Kinetic constants of Lcc35 for digesting ABTS and SGZ were determined based on the initial reaction rates of Lcc35 at various substrate concentrations. The enzymatic reactions were taken place at pH 5 (for ABST) or pH 6 (for SGH) and 70° C.

[3] = system: R. microporus BCRC 35318; assay: Effects of inducers on laccase production in R. microporus; type: cell-based; conditions: for Yield of laccase production: inducer 1 mM in basal medium
Procedure: (§1) To isolate the laccase from R. microporus BCRC 35318, eight-day-old mycelial disks (8 mm in diameter) collected from the PDA plate mentioned above were inoculated into a basal medium containing (per liter) 10 g glucose, 0.22 g ammonium tartrate, 0.9 g K2HPO4, 0.1 g KH2PO4, 0.05 g MgSO4.7H2O, 0.5 g CaCl2, 0.01 g Thiamine HCl, and 10 ml solution (0.08 g CuSO4.5H2O, 0.07 g MnSO4.4H2O, 4.3 g ZnSO4.7H2O and 0.05 g FeSO4.7H2O per liter). The pH of the medium was adjusted to 5.5. After being cultured for 10 days at 30° C. in a rotary shaker with a speed setting of 125 rpm, the supernatant of the fungal culture thus obtained was collected and passed through a […] filter (Nalgene) to remove fungal cells. The filtrate was mixed with 100% ammonium sulfate for protein precipitation. The precipitated proteins were dissolved in 40 ml of a 10 mM sodium acetate buffer (pH 6.0) and the resultant solution was dialyzed against the same acetate buffer overnight to remove co-precipitated ammonium sulfate and then concentrated to 4 ml by ultracentrifugal filteration with a molecular cutoff of 10 kDa (Amicon).
R. microporus BCRC 35318 cells were cultured in the basal medium described in Example 1 above, which was supplemented with veratryl alcohol, 4-hydroxybenxoic acid, ferulic acid, or rice straw powder. Lcc35 were isolated from the culture supernatants following the method also described above and its activity was determined.

[4] = system: Rigidoporus microporus BCRC 35318 laccase Lcc35, native (wild type), mature form SEQ ID NO:1; assay: Inhibitor effects on Lcc35 laccase activity (ABTS as the substrate); type: biochemical, R. microporus BCRC 35318; conditions: 10 min; for Relative activity (residual laccase activity with inhibitor; None = 100.0): pre-incubated pH 5.0, 30° C.
Procedure: as §1
Next, the laccase activities of Lcc35 under various pH conditions were determined, following the method described in Lu et al., Appl. Microbiol. Biotechnol., 2007, 74, (6), 1232-1239. 0.01 ml of the Lcc35-containing solution was mixed with (i) 0.49 ml of a 50 mM reaction buffer of glycine-HCl (pH 2.0 to 3.0), sodium acetate (pH 4.0 to 6.0), or sodium phosphate (pH 7.0 to 8.0) and (ii) 0.5 ml of a substrate solution containing 2 mM ABTS, 1 mM [N,N′-bis(3,5-dimethoxy-4-hydroxybenzylidene)hydrazine] (SGZ), or 0.04% RBBR. After being incubated at 30° C. for 1 min (when ABST or SGZ was the substrate) or for 4 hours (when RBBR was the substrate), each of the reaction mixtures was examined with a spectrophotometer to determine its optical density at 420 nm (when ABST was the substrate), at 530 nm (when SGZ was the substrate), or at 585 nm (when RBBR was the substrate). One unit of laccase activity was defined as the amount of Lcc35 that oxidized 1 μmol substrate per min. […]

[5] = ABTS overlay activity assay on basic-native PAGE gel; type: biochemical; conditions: ABTS reaction buffer 1 mM, pH 3, room temperature
Procedure: The laccase activity of this 55kDa protein was determined by an [2,2-azinobis(3-ethylbenzathiazoline-6-sulfonic acid)] (ABTS) overlay activity assay. See Lebendiker M BASIC-NATIVE GEL Protocol, wolfson.huji.ac.il/purification/Protocols/PAGE_Basic.html. A basic-native PAGE gel containing the 55 kDa protein was incubated in an ABTS reaction buffer (1 mM, pH 3) at room temperature.

[6] = Isoelectric focusing with PhastGel IEF 3-9; type: physicochemical
Procedure: First, the isoelectric focusing point of Lcc35 was determined with PhastGel IEF 3-9 (GE Healthcare), following the method described in Hackler et al., Anal. Biochem. 1995, 230, (2), 281-289. Briefly, the Lcc35-containing solution mentioned above was loaded on a PhastGel IEF 3-9 gel.

[7] = Laccase activity under various pH conditions, ABTS substrate; type: biochemical; conditions: 30° C., 1 min
Procedure: (§2) Next, the laccase activities of Lcc35 under various pH conditions were determined, following the method described in Lu et al., Appl. Microbiol. Biotechnol., 2007, 74, (6), 1232-1239. 0.01 ml of the Lcc35-containing solution was mixed with (i) 0.49 ml of a 50 mM reaction buffer of glycine-HCl (pH 2.0 to 3.0), sodium acetate (pH 4.0 to 6.0), or sodium phosphate (pH 7.0 to 8.0) and (ii) 0.5 ml of a substrate solution containing 2 mM ABTS, 1 mM [N,N′-bis(3,5-dimethoxy-4-hydroxybenzylidene)hydrazine] (SGZ), or 0.04% RBBR. After being incubated at 30° C. for 1 min (when ABST or SGZ was the substrate) or for 4 hours (when RBBR was the substrate), each of the reaction mixtures was examined with a spectrophotometer to determine its optical density at 420 nm (when ABST was the substrate), at 530 nm (when SGZ was the substrate), or at 585 nm (when RBBR was the substrate). One unit of laccase activity was defined as the amount of Lcc35 that oxidized 1 μmol substrate per min.

[8] = Laccase activity under various pH conditions, SGZ substrate; type: biochemical; conditions: 30° C., 1 min
Procedure: as §2

[9] = Laccase activity under various pH conditions, RBBR de-colorization; type: biochemical; conditions: RBBR substrate, 30° C., 4 hours
Procedure: as §2

[10] = Optimal pH with artificial lignin on agar micro-titer plate; type: biochemical; conditions: 0.1% lignin substrate, 30° C., 4 hr
Procedure: The optimal pH of Lcc35 was also examined using an artificial lignin as a substrate, as follows. Each of the reaction buffers listed above was mixed with 0.1% lignin (Sigma #471003) and the mixture was placed in wells of an agar micro-titter plate. 10 μl of the Lcc35-containing suspension was placed at the center of each well. The agar plate was incubated at 30° C. for 4 hr to allow degradation of the artificial lignin by Lcc35.

[11] = pH stability of Lcc35; type: physicochemical; conditions: incubated at 30° C. for 20 hours, ABTS substrate
Procedure: The Lcc35 solution was incubated under various pH conditions at 30° C. 20 hours later, the laccase activity in the solution was determined, using ABST as the substrate.

[12] = Laccase activity at various temperatures; type: biochemical; conditions: ABTS substrate, sodium acetate buffer pH 5.0, 1 minute, 25-90° C.
Procedure: The laccase activity of Lcc35 was determined at various temperatures (i.e., ranging from 25-90° C.), using ABST as the substrate. The Lcc35-containing solution was incubated with ABST and a sodium acetate buffer (pH 5.0) for 1 minute and the enzymatic activity was examined afterwards.

[13] = Thermal stability of Lcc35; type: physicochemical; conditions: pH 6.0, 30-70° C. for 10, 30 or 60 minutes
Procedure: To determine thermal stability of Lcc35, the enzyme solution was incubated under pH 6.0 at various temperatures (i.e., 30° C., 40° C., 50° C., 60° C., and 70° C.) for 10, 30, or 60 minutes.

[14] = Activity comparison with T. versicolor laccase, ABTS assay; type: biochemical
Procedure: as §2
(§3) The laccase activity of Lcc35 was compared with Trametes versicolor laccase (provided by Fluka Co.), using either ABST or SGZ as the substrate according to the methods described above.

[15] = Activity comparison with T. versicolor laccase, SGZ assay; type: biochemical; conditions: SGZ substrate; laccase amount by SDS-PAGE and ImageQuant TL 7.0
Procedure: as §2, §3

[16] = Enzymatic activity of purified Lcc35; type: biochemical; conditions: isolated as in Example 1; culture with 1 mM 4-hydroxybenzoic acid
Procedure: as §1
See Cambria et al., Protein Expr. Purif. 2000, 18, (2), 141-147; and Liu et al., Appl. Microbiol. Biotechnol. 2003, 63, (2), 174-181. Following the isolation process described in Example 1 above, purified Lcc35 was obtained with a recovery rate of about 55% and an enzymatic activity of 289.8 U/ml.

[17] = substrate ABTS, pH 5, 70° C., 420 nm
[18] = substrate SGZ, pH 6, 70° C., 530 nm

O[C@H](CS)[C@H](O)CS (racemic) [DTT, dithiothreitol]
Relative activity (%) of Lcc35 ([1]; compound 0.1 mM): 92.3%
Relative activity (%) of Lcc35 ([1]; compound 1.0 mM): 91.8%

CCn1c(=NN=c2sc3cc(S(=O)(=O)O)ccc3n2CC)sc2cc(S(=O)(=O)O)ccc21 [ABTS, 2,2-azinobis(3-ethylbenzathiazoline-6-sulfonic acid)]
Kcat [2, 17]: 730 s⁻¹
Km [2, 17]: 53 µM

O=C(O)CN(CCN(CC(=O)O)CC(=O)O)CC(=O)O [EDTA, ethylenediaminetetraacetic acid]
Relative activity (%) of Lcc35 ([1]; compound 10.0 mM): 100.0%
Relative activity (%) of Lcc35 ([1]; compound 25.0 mM): 100.0%

O=C(O)c1ccc(O)cc1 [4-Hydroxybenzoic acid, 4-hydroxybenzoic acid]
Yield of laccase production [3]: 10.5 Unit ml^−1
increase of Lcc35 production ([3]; versus no inducer): 10.5 fold

COc1cc(/C=C/C(=O)O)ccc1O [Ferulic acid, ferulic acid]
Yield of laccase production [3]: 2.4 Unit ml^−1

[N-]=[N+]=[N-].[Na+] [NaN3]
Relative activity (residual laccase activity with inhibitor; None = 100.0) ([4]; 0.1 mM compound): 50.0%
Relative activity (residual laccase activity with inhibitor; None = 100.0) ([4]; 1.0 mM compound): 17.0%
inhibitory effect on Lcc35 (in words) ([4]; concentrations of Table 2, pH 5.0, 30° C.): substantially inhibited
inhibitory effect on Lcc35 activity (in words) [1]: substantially inhibited
Relative activity (%) of Lcc35 ([1]; compound 0.1 mM): 50.0%
Relative activity (%) of Lcc35 ([1]; compound 1.0 mM): 17.0%

COc1ccc(CO)cc1OC [Veratryl alcohol, veratryl alcohol]
Yield of laccase production [3]: 3.4 Unit ml^−1

N[C@@H](CS)C(=O)O [L-Cysteine]
Relative activity (%) of Lcc35 ([1]; compound 0.1 mM): 97.2%
Relative activity (%) of Lcc35 ([1]; compound 1.0 mM): 92.7%

COc1cc(/C=N/N=C/c2cc(OC)c(O)c(OC)c2)cc(OC)c1O [SGZ, N,N′-bis(3,5-dimethoxy-4-hydroxybenzylidene)hydrazine]
Kcat [2, 18]: 750 s⁻¹
Km [2, 18]: 7 µM

B1: Lcc35: novel laccase isolated from R. microporus BCRC 35318; mature form SEQ ID NO:1, precursor SEQ ID NO:2 (protein)
chain: SVGPVADIPIVNANLSPDGFTRTTVLAGGTFPGPLIVGNKGDNFKLNVVDQLTDANQLKTTTIHWHGFFQHGTNWADGPAFVNQCPIASGNSFLYDFSAADQAGTFWYHSHLSTQYCDGLRGAFVVYDPSDPNASLYDVDNESTVITLADWYHTLARLGARFPTPDSTLINGLGRFAGGPASDLSVITVESGKRYRFRLVSISCDPNYTFSIDGHDMTIIEVNGINHDALSVDSIQIFAGQRYSFVLNANQAVGNYWIRANPNIGTRGFSGGINSAILRYVGADAVEPTTSQGTSTKPLVETNLHPSQNPGAVGSPTPGGVDLALNLALGFAGGSFTINGATFTSPTVPVLLQILSGAQSATDLLPSGSVFTLPGDSTIEISMPAGVAGGPHPFHLHGHAFDVVRASGSSTYNYANPVRRDVVSLGAAGDNVTIRFKTDNPGPWFLHCHIDWHLEAGLAIVFAEDTPNTAAINPVPQAWSDLCPIYNALAESDH
modifications: RIGIDOPORUS MICROPORUS
laccase activity (color change around the 55 kDa band) [5]: high laccase activity
pI value [6]: 3.98
pH of highest laccase activity [7]: 3-5
pH of highest laccase activity [8]: 5-6
pH of highest laccase activity [9]: 5-6
pH of highest laccase activity [10]: 5-6
pH at which Lcc35 was more stable [11]: 6
temperature of highest laccase activity [12]: 70 °C
temperature below which Lcc35 was stable [13]: below 50 °C
laccase-specific activity relative to T. versicolor laccase ([14]; ABTS or SGZ as the substrate): 2-3 fold
ABTS assay, laccase-specific activity ([14]; ABTS substrate, laccase amount by SDS-PAGE and ImageQuant TL 7.0): 3800 U mg^−1
SGZ assay, laccase-specific activity [15]: 1700 U mg^−1
enzymatic activity of purified Lcc35 [16]: 289.8 U/ml
